Reference: ChEMBL document CHEMBL1159142, “A convenient degradation of polyoxin D to uracil polyoxin C: access to key intermediates and synthesis of antifungal -aminoacyl derivatives of UPOC” (Bioorg Med Chem Lett, 1993)

System: Candida albicans
Test: Geometric mean minimum inhibitory concentration (GMMIC) for whole cell activity against Candida albicans
Type: functional

Structure (SMILES) | GMMIC [µg/mL]
CC[C@@H](C)C(N)C(=O)N[C@H](C(=O)O)[C@H]1O[C@@H](n2ccc(=O)[nH]c2=O)[C@H](O)[C@@H]1O (some centres not stated) | 44
NC(Cc1c[nH]c2ccc(O)cc12)C(=O)NC[C@H]1OC(n2ccc(=O)[nH]c2=O)[C@H](O)[C@@H]1O (some centres not stated) | >2048
C[C@@H]([C@H](N)C(=O)N[C@H](C(=O)O)[C@H]1O[C@@H](n2ccc(=O)[nH]c2=O)[C@H](O)[C@@H]1O)[C@H](O)c1ccc(O)cn1 [NIKKOMYCIN] | 6
N[C@@H](Cc1c[nH]c2ccc(O)cc12)C(=O)N[C@H](C(=O)O)[C@H]1O[C@@H](n2ccc(=O)[nH]c2=O)[C@H](O)[C@@H]1O | 27
N[C@H](C(=O)N[C@H](C(=O)O)[C@H]1O[C@@H](n2ccc(=O)[nH]c2=O)[C@H](O)[C@@H]1O)c1csc(O)c1 | >2048
NCC(=O)N[C@H](C(=O)O)[C@H]1O[C@@H](n2ccc(=O)[nH]c2=O)[C@H](O)[C@@H]1O | >2048
C[C@@H](Cc1ccc(O)cn1)[C@H](N)C(=O)N[C@H](C(=O)O)[C@H]1O[C@@H](n2ccc(=O)[nH]c2=O)[C@H](O)[C@@H]1O | 51
NC(Cc1c[nH]c2ccc(O)cc12)C(=O)N[C@H](CO)[C@H]1OC(n2ccc(=O)[nH]c2=O)[C@H](O)[C@@H]1O (some centres not stated) | >2048
C[C@H](Cc1ccc(O)cn1)[C@H](N)C(=O)N[C@H](C(=O)O)[C@H]1O[C@@H](n2ccc(=O)[nH]c2=O)[C@H](O)[C@@H]1O | 9.3
N[C@@H](Cc1c[nH]c2ccccc12)C(=O)N[C@H](C(=O)O)[C@H]1O[C@@H](n2ccc(=O)[nH]c2=O)[C@H](O)[C@@H]1O | 2048
N[C@@H](CCc1ccc(O)cc1)C(=O)N[C@H](C(=O)O)[C@H]1O[C@@H](n2ccc(=O)[nH]c2=O)[C@H](O)[C@@H]1O | 128
CC(C)[C@H](N)C(=O)N[C@H](C(=O)O)[C@H]1O[C@@H](n2ccc(=O)[nH]c2=O)[C@H](O)[C@@H]1O | 87
N[C@@H](Cc1c[nH]c2ccc(F)cc12)C(=O)N[C@H](C(=O)O)[C@H]1O[C@@H](n2ccc(=O)[nH]c2=O)[C@H](O)[C@@H]1O | >2048
NC(=O)OC[C@H](O)[C@@H](O)[C@H](N)C(=O)N[C@H](C(=O)O)[C@H]1O[C@@H](n2cc(C(=O)O)c(=O)[nH]c2=O)[C@H](O)[C@@H]1O | 153
C=C[C@@H](C)C(N)C(=O)N[C@H](C(=O)O)[C@H]1O[C@@H](n2ccc(=O)[nH]c2=O)[C@H](O)[C@@H]1O (some centres not stated) | 406
CSCCC(N)C(=O)N[C@H](C(=O)O)[C@H]1O[C@@H](n2ccc(=O)[nH]c2=O)[C@H](O)[C@@H]1O (some centres not stated) | 49
N[C@H](C(=O)O)[C@H]1OC(n2ccc(=O)[nH]c2=O)[C@H](O)[C@@H]1O (some centres not stated) | >2048
N[C@@H](CCc1ccc(O)cn1)C(=O)N[C@H](C(=O)O)[C@H]1O[C@@H](n2ccc(=O)[nH]c2=O)[C@H](O)[C@@H]1O | 118
CC[C@H](C)C(N)C(=O)N[C@H](C(=O)O)[C@H]1O[C@@H](n2ccc(=O)[nH]c2=O)[C@H](O)[C@@H]1O (some centres not stated) | >2048
C[C@H](Cc1ccc(O)cc1)[C@H](N)C(=O)N[C@H](C(=O)O)[C@H]1O[C@@H](n2ccc(=O)[nH]c2=O)[C@H](O)[C@@H]1O | 35
CC[C@@H](O)C(N)C(=O)N[C@H](C(=O)O)[C@H]1O[C@@H](n2ccc(=O)[nH]c2=O)[C@H](O)[C@@H]1O (some centres not stated) | >2048
COc1ccc2[nH]cc(C[C@H](N)C(=O)N[C@H](C(=O)O)[C@H]3O[C@@H](n4ccc(=O)[nH]c4=O)[C@H](O)[C@@H]3O)c2c1 | >2048
